Patent US20220073475A1, “5-MEMBERED HETEROARYL COMPOUNDS CONTAINING A HYDROXAMATE MOIETY AND THEIR USE” (UNIVERSITE DE LILLE, priority 2019, published 2022)

Legend:
[1] = system: HeLa cells; test: CFZ potency increase, ratio of CC50 of CFZ alone / with compound; format: cell-based, human; conditions: compound at 7.5 μM
Text: Human HeLa cells (uterine cervical carcinoma) are maintained in DMEM medium supplemented with GlutaMAX™, 10% fetal bovine serum and 1% penicillin-streptomycin.
(§1) We developed a cell-based, high content assay allowing the rapid detection and quantification of apoptotic cells. Caspase-3/7 activity was detected in real-time using the NucView™ 488 Caspase-3 substrate (Biotium), where the caspase-3/7 substrate peptide sequence DEVD is attached to a nucleic acid dye. The NucView™ 488 reagent crosses the plasma membrane to enter the cytoplasm, where the dye is unable to bind to DNA and remains non-fluorescent. Once the substrate has been cleaved by activated caspase-3/7 in apoptotic cells, the high-affinity DNA dye is released and migrates to the cell nucleus to stain the nucleus with a bright green fluorescence. All cell nuclei were also labeled with Hoechst 33342 (Ozyme).
(§2) For HeLa and MCF7 cells, briefly, cells were seeded in 384-microtiter well plate (1500 HeLa cells or 5000 MCF7 cells in 40 μL full medium per well) and let to attach overnight. Then the compound of the invention and the RE stressor were transferred to the cell culture plate using an Echo555 liquid handler (Labcyte) and 30 μL medium containing NucView™ and Hoechst 33342 were added. Final NucView™ 488 and Hoechst 33342 concentrations were 1 μM and 20 ng/mL, respectively. DMSO content was maintained at 0.2%. The microplates were incubated at 37° C. and 5% CO2 in an automated LiCONiC STR240 UB cell incubator, and images were acquired at various times at 405 nm and 488 nm with the high-resolution automated confocal microscope INCell 6000 (GE). Four fields per well were read with the 20× objective in a confocal mode. The BioCel workstation was managed by VWorks automation control software (Agilent).
(§3) For all cells, Columbus software (Perkin) was used for image quantification and analysis. First, Hoechst 33342 staining was used for an automated detection of nuclei, in which the mean fluorescence intensity for NucView™ 488 was quantified. Inspection of control cells at initial time was used to set a threshold level of NucView™ 488 fluorescence to separate non apoptotic cells from apoptotic cells. Finally, for each well, the result was expressed as percentage of apoptotic cells in the total cell population. CC50 values were calculated from concentration-response curves by a nonlinear regression analysis at four parameters using Excel Fit or GraphPad Prim softwares.
(§4) Activity=(% of apoptotic cells with cytotoxic agent in combination with compound of the invention)/(% of apoptotic cells with cytotoxic agent alone). • Ratio of CC50: The CC50 of the cytotoxic agent was calculated in absence and in presence of a compound of the invention.
(§5) Activity=(CC50 of agent alone)/(CC50 of agent with compound). • Ratio of AUC. Activity=(Area of the dose-concentration curve of cytotoxic agent combined with one concentration of compound)/(Area of the dose-concentration curve of cytotoxic agent alone). (Lehar J. et al, 2008 (molecular systems biology 4:215)).

[2] = system: OPM2 cells; test: as above; format: cell-based, human
In short: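 OPM2 cells (12,000/well, 0.2% DMSO) treated with compound plus carfilzomib, with NucView 488 caspase-3/7 substrate (1 μM) and Hoechst 33342, 37 °C; confocal imaging over time gives % apoptotic cells. CFZ CC50 from 4-parameter fits alone and with compound; activity = CC50 alone / CC50 with compound.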

[3] = system: MCF7 cells; test: as above; format: cell-based, human; conditions: MCF7, compound at 15 μM
Description: Human epithelial MCF7 cells (mammary gland adenocarcinoma) are maintained in EMEM medium supplemented with GlutaMAX™, 10% fetal bovine serum, 0.01 mg insulin and 1% penicillin-streptomycin.
as §1, §2, §3, §4, §5

[4] = OPM2, compound at 7.5 μM (Table 5)
[5] = OPM2, compound at 7.5 μM (Table 6)

melting point [°C]	SMILES	Activity: ratio (CC50 of CFZ alone)/(CC50 of CFZ in combination with compound of the invention) [1]	Activity: ratio (CC50 of CFZ alone)/(CC50 of CFZ in combination with compound of the invention) [2, 4]	Activity: ratio (CC50 of CFZ alone)/(CC50 of CFZ in combination with compound of the invention) [2, 5]	Activity: ratio (CC50 of CFZ alone)/(CC50 of CFZ in combination with compound of the invention) [3]
115.8 to 117.2	Cc1ccc(S(=O)(=O)NCc2cn([C@@H](CC(=O)NO)Cc3ccc4ccccc4c3)nn2)cc1 [Compound 5, (R)—N-Hydroxy-4-naphthalen-2-yl-3-{4-[(toluene-4-sulfonylamino)-methyl]-[1,2,3]triazol-1-yl}-butyramide]	–	–	–	–
–	CC(NC(=O)c1ccc(F)c(F)c1)c1cn([C@@H](CC(=O)NO)Cc2ccc3ccccc3c2)nn1 (stereo in doubt) [Compound 86, 3,4-Difluoro-N-{1-[1-(1(R)-hydroxycarbamoylmethyl-2-naphthalen-2-yl-ethyl)-1H-[1,2,3]triazol-4-yl]-(R)-ethyl}-benzamide]	2.6	1.7	1.7	1.7
–	O=C(CC(Cc1ccc2ccccc2c1)c1nc(CNC(=O)c2ccc(F)cc2)no1)NO (centres unmarked) [Compound 27, 4-fluoro-N-[5-(1-hydroxycarbamoylmethyl-2-naphthalen-2-yl-ethyl)-[1,2,4]oxadiazol-3-ylmethyl]-benzamide]	3.0	2.4	2.4	2.8
198.9 to 200.4	O=C(C[C@@H](Cc1ccc2ccccc2c1)n1cc(CNC(=O)c2ccc(C(F)(F)F)cc2)nn1)NO [Compound 4, N-[1-(R-2-Hydroxycarbamoyl-1-naphthalen-2-ylmethyl-ethyl)-1H-[1,2,3]triazol-4-ylmethyl]-4-trifluoromethyl-benzamide]	–	–	–	–
–	O=C(C[C@@H](C/C=C/c1ccccc1)n1cc(CNC(=O)c2ccc(F)c(F)c2)nn1)NO [Compound 75, 3,4-difluoro-N-[[1-[(E,1R)-1-[2-(hydroxyamino)-2-oxo-ethyl]-4-phenyl-but-3-enyl]triazol-4-yl]methyl]benzamide]	4.3	1.7	1.7	2.1
–	CC(C)C[C@H](NCc1cn([C@@H](CC(=O)NO)Cc2ccc3ccccc3c2)nn1)C(=O)OC(C)(C)C [Compound 20]	6.3	2.1	2.1	3.4
–	O=C(NCc1cn([C@H](Cc2ccc3ccccc3c2)C(=O)NO)nn1)c1ccc(F)cc1 [Compound 43, (R)-4-Fluoro-N-[1-(1-hydroxycarbamoyl-2-naphthalen-2-yl-ethyl)-1H-[1,2,3]triazol-4-ylmethyl]-benzamide]	2.6	1.7	1.7	2.6
–	O=C(C[C@@H](Cc1ccc2ccccc2c1)n1cc(CNC(=O)c2ccc(F)c(F)c2)nn1)NO [Compound 54, 3,4-difluoro-N-[[1-[(1R)-3-(hydroxyamino)-1-(2-naphthylmethyl)-3-oxo-propyl]triazol-4-yl]methyl]benzamide]	2.3	1.8	1.8	2.2
–	O=C(C[C@@H](Cc1ccc2ccccc2c1)n1cc(CNC(=O)c2ccc(F)c(Cl)c2)nn1)NO [Compound 62, 3-chloro-4-fluoro-N-[[1-[(1R)-3-(hydroxyamino)-1-(2-naphthylmethyl)-3-oxo-propyl]triazol-4-yl]methyl]benzamide]	3.0	1.6	1.6	2.6
–	O=C(C[C@@H](Cc1ccc(-c2ccccc2)cc1)n1cc(CNC(=O)c2ccc(F)cc2)nn1)NO [Compound 32, (R)—N-[1-(1-biphenyl-4-ylmethyl-2-hydroxycarbamoyl-ethyl)-1H-[1,2,3]triazol-4-ylmethyl]-4-fluoro-benzamide]	4.5	1.9	1.9	2.7
150 to 151.4	O=C(C[C@@H](Cc1ccc2ccccc2c1)n1cc(CNC(=O)CCc2ccccc2)nn1)NO [Compound 10, (R)—N-Hydroxy-4-naphthalen-2-yl-3-{4-[(3-phenyl-propionylamino)-methyl]-[1,2,3]triazol-1-yl}-butyramide]	–	–	–	–
178.3 to 179.6	COc1ccc(C(=O)NCc2cn([C@@H](CC(=O)NO)Cc3ccc4ccccc4c3)nn2)cc1 [Compound 2]	–	–	–	–
137.4 to 138.8	O=C(C[C@@H](Cc1ccc2ccccc2c1)n1cc(CNS(=O)(=O)c2ccccc2)nn1)NO [Compound 7, (R)-3-[4-(Benzenesulfonylamino-methyl)-[1,2,3]triazol-1-yl]-N-hydroxy-4-naphthalen-2-yl-butyramide]	–	–	–	–
–	O=C(C[C@@H](Cc1ccc2ccccc2c1)n1cc(CC(=O)Nc2ccc(F)cc2)nn1)NO [Compound 58, 3-{4-[(4-Fluoro-phenylcarbamoyl)-methyl]-[1,2,3]triazol-1-yl}-N-hydroxy-4-naphthalen-2-yl-butyramide]	2.7	1.4	1.4	2.0
192.8 to 194	O=C(C[C@@H](Cc1ccc2ccccc2c1)n1cc(CNC(=O)c2ccccc2)nn1)NO [Compound 1, N-[1-((R)-2-Hydroxycarbamoyl-1-naphthalen-2-ylmethyl-ethyl)-1H-[1,2,3]triazol-4-ylmethyl]-benzamide]	–	–	–	–
–	O=C(C[C@@H](Cc1ccc2ccccc2c1)n1cc(CCC(=O)Nc2ccc(F)c(F)c2)nn1)NO [Compound 81, N-(3,4-difluorophenyl)-3-[1-[3-(hydroxyamino)-1-(2-naphthylmethyl)-3-oxo-propyl]triazol-4-yl]propanamide]	3.5	2.3	2.3	2.5
–	O=C(C[C@@H](Cc1ccc2ccccc2c1)n1nncc1CNC(=O)c1ccccc1)NO [Compound 12, (R)—N-[3-(1-Hydroxycarbamoylmethyl-2-naphthalen-2-yl-ethyl)-3H-[1,2,3]triazol-4-ylmethyl]-benzamide]	2.4	1.2	1.2	1.6
